Like-named read-outs stand apart in the source and are kept apart here.

Series [1] concerns patients with multiple sclerosis. Put plainly: MS-F203 Phase 3 double-blind placebo-controlled study. The note with it: 10 mg b.i.d. Format: in vivo, human. The text has this:
A three stage, stepwise analysis based on this variable was used to establish a positive outcome on the primary endpoint and to establish its clinical meaningfulness with respect to overall walking ability. […] The second step was to register a significant improvement in MSWS-12 score for the Timed-Walk Responders when compared to Timed-Walk Non-Responders. The third step was to confirm maintenance of effect by testing whether those patients who responded to 4-aminopyridine-SR on the T25FW would still register a significant improvement in walking speed relative to placebo-treated patients at the last observed double-blind visit (i.e., the change from baseline in walking speed at the double-blind endpoint). FIG. 47 depicts walking speed improvements found in the MS-F203 study: In FIG. 47, the two graphs show the average change in walking speed from baseline at each of the four visits over the 3 months of double blind treatment. […] There was no indication of a loss of efficacy over, e.g., 12 weeks, 13 weeks, 14 weeks, 3 months of treatment in this study. The MS-F203 study established that the improvement in walking speed seen in treated Timed Walk Responders was maintained over, e.g., 12 weeks, 13 weeks, 14 weeks, 3 months of treatment. The enxtention data herein established that periods greater than those of this study were able to be effeicaious, thus as a durable and chronic therapy. […]

Series [2] has the same test system. The series is described as follows: MS-F203EXT open-label extension study. The conditions noted are these: for patients classified as Extension Timed Walk Responders: cut-off Jul. 31, 2008. Format: in vivo, human. The procedure: Data were presented by study pair (parent and extension).
In the MS-F203EXT study, which allowed patients to enroll directly from the parent study MS-F203, open-label 4-aminopyridine-SR 10 mg b.i.d. was dispensed at visit 0 (a separate screening visit was only required if the screening visit could not be combined with the Final visit for MS-F203); visit 1 was scheduled to occur two weeks after visit 0, visit 2 at 12 weeks after visit 1, visit 3 at 12 weeks after visit 2. The planned interval between subsequent visits was 26 weeks. Therefore, at visit 4, a patient should have been on 4-aminopyridine-SR treatment for approximately one year.
This Example considers efficacy data collected from the three ongoing, open label extension studies (MS-F202EXT, MS-F203EXT, MS-F204EXT). The primary focus was the Timed 25-Foot Walk, assessed in a manner consistent with its evaluation in the parent double-blind studies. This included the determination of response to treatment using a criterion equivalent to the Timed Walk Response criterion used in the parent studies. […] The clinical meaningfulness of this criterion was evaluated in terms of the Subject and Clinician Global Impression scores recorded during the extension studies.
In the extension studies, a “Timed Walk Extension Responder” was defined as a patient who achieved a faster walking speed on the T25FW for the majority of on-drug treatment visits during the first year of the study (Visits 1-4 for MS-F203EXT and MS-F204EXT) than the maximum walking speed previously measured for the patient during any off-drug visits in either the parent study or in the extension study.

The conditions of series [3]: cited from earlier work; for bioavailability: AUC(0-∞) i.v. vs p.o. 2 mg/kg.
Series [4] can be described thus: Pharmacokinetics after i.v. and p.o. 4-aminopyridine (2 mg/kg) in rats. The conditions noted are these: single p.o. 2 mg/kg.
From the text: Distribution: The volume of distribution at steady state (Vdss) in rats has been reported to approximate total body volume (not adjusted for bioavailability).

As usually defined, the bioavailability is the share of a dose that reaches the circulation, judged against a reference dose that is usually intravenous. For the compound `Nc1ccncc1` [4-aminopyridine], the “improvement in walking speed across the treatment period” value in series [1] (Timed Walk Non-responders) is on record as “approximately 7%”. In addition, in series [1] (Timed Walk Responders), the “average increase in walking speed over the treatment period compared to baseline” value was “approximately 25%”. In series [2] (Extension Timed Walk Non-Responders, end of the second year), the “decline in walking speed from the original double-blind baseline” value is on record as “approximately 8%”. Besides, the “improvement in walking speed over the original baseline” value in series [2] (Extension Timed Walk Responders, Visit 6) is “more than 20%”. Further, the “mean walking speed faster than double-blind baseline at each extension visit” value in series [2] (Extension Timed Walk Responders, first year) is reported as “more than 30%”. In addition, the “patients classified as Extension Timed Walk Responders” value is on record as 24.9% in series [2] (all patients), 19.7% in series [2] (parent-study treated Timed Walk Non-Responders), 41.4% in series [2] (parent-study treated Timed Walk Responders) and 17.7% in series [2] (placebo-treated in parent study). For the same compound, the “Extension Timed Walk Response rate within year” value is reported as 19.7% in series [2] (double-blind Non-Responders, year 1); 17.5% in series [2] (double-blind Non-Responders, year 2); 42.9% in series [2] (double-blind Responders, year 1); 36.1% in series [2] (double-blind Responders, year 2); 16.2% in series [2] (placebo treated in parent study, year 1); 20.8% in series [2] (placebo treated in parent study, year 2). For the same compound, the bioavailability was about 55% in series [3] (female rats) and “approximately 66.5%” in series [3] (male rats). Moreover, the “peak plasma concentrations lower in females than in males” value in series [3] (oral administration) is 38%. Also, the “Vdss lower in females than in males” value in series [4] came out at 13%.

These data come from patent publication US20170319562A1, “Compositions and Methods for Extended Therapy with Aminopyridines” (Acorda Therapeutics, Inc., priority 2009, published 2017).
